Measurements as given in patent publication US6756373B1, “Pharmaceutically active compounds” (Pfizer Inc., priority 1999, dated 2004).

Tests used:
cGMP PDE5 = cGMP PDE5 (UniProt O76074); assay: Phosphodiesterase (PDE) inhibitory activity: in vitro inhibition of cGMP PDE5 (batch method or scintillation proximity assay); settings: in vitro activity as inhibitors of cGMP PDE5
Protocol: Phosphodiesterases 7-11 were generated from full length human recombinant clones transfected into SF9 cells.
In summary, the effect of PDE inhibitors was investigated by assaying a fixed amount of enzyme in the presence of varying inhibitor concentrations and low substrate, (cGMP or cAMP in a 3:1 ratio unlabelled to [^3H]-labeled at a conc ˜1/3 Km) such that IC50≅Ki. The final assay volume was made up to 100 μl with assay buffer [20 mM Tris-HCl pH 7.4, 5 mM MgCl2, 1 mg/ml bovine serum albumin].

Compound	IC50 (cGMP PDE5) [nM]	melting point [°C]
CCCOc1ncc(I)cc1-c1nc2c(CC)nn(CC(=O)OC(C)(C)C)c2c(=O)[nH]1 [Example 64, tert-butyl [3-ethyl-5-(5-iodo-2-propoxy-3-pyridinyl)-7-oxo-6,7-dihydro-1H-pyrazolo[4,3-d]pyrimidin-1-yl]acetate]	7	
CCCOc1ncc(-c2cc(O)no2)cc1-c1nc2c(CCC)nn(C)c2c(=O)[nH]1 [Example 73, 5-[5-(3-Hydroxy-5-isoxazolyl)-2-propoxy-3-pyridinyl]-1-methyl-3-propyl-1,6-dihydro-7H-pyrazolo[4,3-d]pyrimidin-7-one]	5	239 to 241
CCCOc1ncc(N(S(C)(=O)=O)S(C)(=O)=O)cc1-c1nc2c(CCC)nn(C)c2c(=O)[nH]1 [Example 76, N-[5-(1-Methyl-7-oxo-3-propyl-6,7-dihydro-1H-pyrazolo[4,3-d]pyrimidin-5-yl)-6-propoxy-3-pyridinyl]-N-(methylsulfonyl)methanesulfonamide]	3	
CCCOc1ncc(NS(C)(=O)=O)cc1-c1nc2c(CCC)nn(C)c2c(=O)[nH]1 [Example 77, N-[5-(1-Methyl-7-oxo-3-propyl-6,7-dihydro-1H-pyrazolo[4,3-d]pyrimidin-5-yl)-6-propoxy-3-pyridinyl]methanesulfonamide]	0.9	
CCCOc1ncc(NC(=O)CC(=O)OC)cc1-c1nc2c(CCC)nn(C)c2c(=O)[nH]1 [Example 78, Methyl 3-{[5-(1-methyl-7-oxo-3-propyl-6,7-dihydro-1H-pyrazolo[4,3-d]-pyrimidin-5-yl)-6-propoxy-3-pyridinyl]amino}-3-oxopropanoate]	0.3	
CCCOc1ncc(NC(=O)CC(=O)O)cc1-c1nc2c(CCC)nn(C)c2c(=O)[nH]1 [Example 79, N-[5-(1-Methyl-7-oxo-3-propyl-6,7-dihydro-1H-pyrazolo[4,3-d]pyrimidin-5-yl)-6-propoxy-3-pyridinyl]-3-oxo-β-alanine]	1.6	261 to 262
CCCOc1ncc(NS(=O)(=O)CC(=O)O)cc1-c1nc2c(CCC)nn(C)c2c(=O)[nH]1 [Example 80, ({[5-(1-Methyl-7-oxo-3-propyl-6,7-dihydro-1H-pyrazolo[4,3-d]pyrimidin-5-yl)-6-propoxy-3-pyridinyl]amino}sulfonyl)acetic Acid]	0.9	267 to 270
CCCOc1ncc(N2CCN(S(=O)(=O)c3ccc(C)cc3)CC2)cc1-c1nc2c(CCC)nn(C)c2c(=O)[nH]1 [Example 81, 1-Methyl-5-(5-{4-[(4-methylphenyl)sulfonyl]-1-piperazinyl}-2-propoxy-3-pyridinyl)-3-propyl-1,6-dihydro-7H-pyrazolo[4,3-d]pyrimidin-7-one]	2	

The remaining lines, values ahead:

IC50 (cGMP PDE5) [nM]	melting point [°C]	Compound
4		CCCOc1ncc(I)cc1-c1nc2c(CC)n(CC(=O)OC(C)(C)C)nc2c(=O)[nH]1 [Example 65, tert-butyl [3-ethyl-5-(5-iodo-2-propoxy-3-pyridinyl)-7-oxo-6,7-dihydro-2H-pyrazolo[4,3-d]-pyrimidin-2-yl]acetate]
1		CCCOc1ncc(-c2nnn[nH]2)cc1-c1nc2c(CCC)nn(C)c2c(=O)[nH]1 [Example 71, 1-Methyl-5-[2-propoxy-5-(1H-tetrazol-5-yl)-3-pyridinyl]-3-propyl-1,6-dihydro-7H-pyrazolo[4,3-d]pyrimidin-7-one]
0.3		CCCOc1ncc(C#CC(=O)OCC)cc1-c1nc2c(CCC)nn(C)c2c(=O)[nH]1 [Example 72]
5		CCCOc1ncc(NCC(=O)O)cc1-c1nc2c(CCC)nn(C)c2c(=O)[nH]1 [Example 75, {[5-(1-Methyl-7-oxo-3-propyl-6,7-dihydro-1H-pyrazolo[4,3-d]pyrimidin-5-yl)-6-propoxy-3-pyridinyl]amino}acetic Acid]
4	175	CCCOc1ncc(NCC(=O)OC)cc1-c1nc2c(CCC)nn(C)c2c(=O)[nH]1 [Example 82, Methyl {[5-(1-Methyl-7-oxo-3-propyl-6,7-dihydro-1H-pyrazolo[4,3-d]pyrimidin-5-yl)-6-propoxy-3-pyridinyl]amino}acetate]
2	185 to 187	CCCOc1ncc(NC(C)C(=O)OC)cc1-c1nc2c(CCC)nn(C)c2c(=O)[nH]1 (centres unmarked) [Example 83, Methyl 2-{[5-(1-Methyl-7-oxo-3-propyl-6,7-dihydro-1H-pyrazolo[4,3-d]-pyrimidin-5-yl)-6-propoxy-3-pyridinyl]amino}propanoate]
7.5		CCCOc1ncc(N[C@@H](C)C(=O)O)cc1-c1nc2c(CCC)nn(C)c2c(=O)[nH]1 [Example 84, N-[5-(1-Methyl-7-oxo-3-propyl-6,7-dihydro-1H-pyrazolo[4,3-d]pyrimidin-5-yl)-6-propoxy-3-pyridinyl]alanine]
